Measurements published in ChEMBL document CHEMBL3045490, “N-Thiophenylethyl-2,2-dichloro-1-cyclopropanecarboxamides: modification of the amide part of carpropamid and examination of fungicidal activity” (2009).

How the values were obtained:
Assay type in all cases: functional
[1] = system: Pseudoperonospora cubensis; experiment: Antifungal activity against Pseudoperonospora cubensis in cucumber assessed as lesion area of the disease at 500 ug/ml after 7 days
Botrytis cinerea = experiment: Antifungal activity against Botryotinia fuckeliana in cucumber cotyledon assessed as lesion area of the disease at 500 ug/ml after 4 days
Blumeria graminis = experiment: Antifungal activity against Blumeria graminis in wheat plant assessed as lesion area of the disease at 500 ug/ml after 10 days
Puccinia recondita = experiment: Antifungal activity against Puccinia recondita in wheat plant assessed as lesion area of the disease at 500 ug/ml after 10 days

Compound	Activity [1]	Activity (Botrytis cinerea)	Activity (Blumeria graminis)	Activity (Puccinia recondita)
CCC1(C(=O)Nc2ccc(Cl)cc2)C(C)C1(Cl)Cl (stereo unspecified)	>=80%	>=80%	>=80%	>=80%
CCC1(C(=O)NC(C)C2CCCCCC2)C(C)C1(Cl)Cl (stereo unspecified)	0%	>=80%	>=80%	>=80%
CCC1(C(=O)NC(C)C2CCCC2)C(C)C1(Cl)Cl (stereo unspecified)	0%	3.5%	>=80%	>=80%
CC(Cc1ccc(C(C)(C)C)cc1)CN1CCCCC1 (stereo unspecified) [FENPROPIDIN]	–	–	0%	–
CC(NC(=O)C1(c2ccccc2)CC1(Cl)Cl)c1ccc(Cl)cc1 (stereo unspecified)	>=80%	>=80%	>=80%	>=80%
CCC(C)NC(=O)C1(CC)C(C)C1(Cl)Cl (stereo unspecified)	>=80%	<20%	>=80%	>=80%
CCC1(C(=O)NCCc2ccc(Cl)cc2Cl)C(C)C1(Cl)Cl (stereo unspecified)	>=80%	>=80%	>=80%	>=80%
CCC1(C(=O)NC(C)c2ccc(Cl)s2)C(C)C1(Cl)Cl (stereo unspecified)	>=80%	>=80%	>=80%	1.5%
CCC1(C(=O)NCCc2ccc(Cl)s2)C(C)C1(Cl)Cl (stereo unspecified)	>=80%	>=80%	>=80%	1.5%
CCC1(C(=O)NC(C)c2csc(Cl)c2)C(C)C1(Cl)Cl (stereo unspecified)	<20%	>=80%	>=80%	>=80%
CCC1(C(=O)NCCc2ccc(C)cc2)C(C)C1(Cl)Cl (stereo unspecified)	>=80%	>=80%	2.5%	>=80%
CCC1(C(=O)NCCc2csc(Cl)n2)C(C)C1(Cl)Cl (stereo unspecified)	0%	>=80%	>=80%	0.5%
CC(C)(C)C(C#N)C(=O)NCCc1csc(Cl)c1 (stereo unspecified)	>=80%	>=80%	>=80%	1.5%
CCC1(C(=O)NCCc2cc(Cl)cs2)C(C)C1(Cl)Cl (stereo unspecified)	>=80%	>=80%	>=80%	<40%
CCC1(C(=O)NCCc2ccc(F)cc2F)C(C)C1(Cl)Cl (stereo unspecified)	0%	<20%	2.5%	>=80%
CCC1(C(=O)NCc2ccc(Cl)cc2)C(C)C1(Cl)Cl (stereo unspecified)	<20%	>=80%	>=80%	>=80%
CC(NC(=O)C1(C(C)C)CC1(Cl)Cl)c1ccc(Cl)cc1 (stereo unspecified)	>=80%	>=80%	>=80%	<20%
CC(C)(C)C(Br)C(=O)NCCc1csc(Cl)c1 (stereo unspecified)	>=80%	>=80%	>=80%	<20%
CCC1(C(=O)NCCc2ccsc2)C(C)C1(Cl)Cl (stereo unspecified)	>=80%	>=80%	>=80%	<40%
CCC1(C(=O)NCCc2ccc(C(F)(F)F)cc2)C(C)C1(Cl)Cl (stereo unspecified)	>=80%	>=80%	0.5%	>=80%
CCC1(C(=O)NC(C)C2CCCCC2)C(C)C1(Cl)Cl (stereo unspecified)	>=80%	>=80%	>=80%	>=80%
CC1(C)C(Cl)(Cl)C1(C)C(=O)NCCc1csc(Cl)c1 (stereo unspecified)	>=80%	>=80%	<20%	0.5%
CCC1(C(=O)NCCc2csc(Cl)c2)C(C)C1(Cl)Cl (stereo unspecified)	0.5%	>=80%	>=80%	>=80%
CCCC1(C(=O)NCCc2csc(Cl)c2)CC1(Cl)Cl (stereo unspecified)	>=80%	0.5%	>=80%	>=80%
CCC1(C(=O)OCCc2csc(Cl)c2)C(C)C1(Cl)Cl (stereo unspecified)	<20%	2.5%	>=80%	>=80%
CCC1(C(=O)NC(C)C2CC2(Cl)Cl)C(C)C1(Cl)Cl (stereo unspecified)	>=80%	>=80%	>=80%	>=80%

Compound	Activity [1]	Activity (Botrytis cinerea)	Activity (Blumeria graminis)	Activity (Puccinia recondita)
CCC1(C(=O)NCCc2ccccc2Cl)C(C)C1(Cl)Cl (stereo unspecified)	>=80%	>=80%	>=80%	>=80%
CCC1(C(=O)NCC(C)c2ccc(Cl)cc2)C(C)C1(Cl)Cl (stereo unspecified)	<20%	>=80%	>=80%	>=80%
CCC1(C(=O)NCCc2ccc(Br)cc2)C(C)C1(Cl)Cl (stereo unspecified)	>=80%	>=80%	>=80%	>=80%
CCC1(C(=O)NCCc2cc(Cl)sc2Cl)C(C)C1(Cl)Cl (stereo unspecified)	>=80%	>=80%	>=80%	>=80%
CCC1(C(=O)NCCc2ccc(F)cc2)C(C)C1(Cl)Cl (stereo unspecified)	>=80%	>=80%	<20%	<40%
CCC1(C(=O)NCCc2ccc(Cl)c(Cl)c2)C(C)C1(Cl)Cl (stereo unspecified)	0%	>=80%	>=80%	3.5%
CCC1(C(=O)NCCCc2ccc(Cl)cc2)C(C)C1(Cl)Cl (stereo unspecified)	0%	>=80%	>=80%	>=80%
CCC1(C(=O)NC(C)CC(F)(F)F)C(C)C1(Cl)Cl (stereo unspecified)	>=80%	>=80%	>=80%	>=80%
CC[C@@]1(C(=O)N[C@H](C)c2ccc(Cl)cc2)[C@@H](C)C1(Cl)Cl [CARPROPAMIDE]	0.5%	>=80%	>=80%	>=80%
CCC1(C(=O)NC(C)C2CC3C=CC2C3)C(C)C1(Cl)Cl (stereo unspecified)	>=80%	<40%	>=80%	>=80%
CC(NC(=O)C1(C2CCCC2)CC1(Cl)Cl)c1ccc(Cl)cc1 (stereo unspecified)	>=80%	>=80%	>=80%	>=80%
CCC1(C(=O)NCCc2cc(Cl)c(Cl)s2)C(C)C1(Cl)Cl (stereo unspecified)	>=80%	>=80%	>=80%	>=80%
CCC1(C(=O)NC(C)Cc2ccc(Cl)cc2)C(C)C1(Cl)Cl (stereo unspecified)	>=80%	>=80%	>=80%	>=80%
CCC1(C(=O)NCCc2ccc(Cl)cc2)C(C)C1(Cl)Cl (stereo unspecified)	3.5%	>=80%	>=80%	>=80%
CC1(C(=O)NCCc2csc(Cl)c2)CC1(Cl)Cl (stereo unspecified)	0.5%	>=80%	>=80%	0.5%
CC1(C)C(C(=O)NCCc2csc(Cl)c2)C1(Cl)Cl (stereo unspecified)	1.5%	>=80%	>=80%	1.5%
CCC1(C(=O)NCCc2ccccc2)C(C)C1(Cl)Cl (stereo unspecified)	0%	>=80%	0.5%	1.5%
CC(C)(C)C(Cl)C(=O)NCCc1csc(Cl)c1 (stereo unspecified)	>=80%	>=80%	>=80%	>=80%
CCC1(C(=O)NCCc2cccc(Cl)c2)C(C)C1(Cl)Cl (stereo unspecified)	0%	>=80%	2.5%	<40%
CCC1(C(=O)NC(C)C2CCC2)C(C)C1(Cl)Cl (stereo unspecified)	>=80%	>=80%	>=80%	>=80%
CCC1(C(=O)NC(C)C)C(C)C1(Cl)Cl (stereo unspecified)	0%	3.5%	>=80%	>=80%
CC(C)(C)CC(=O)NCCc1csc(Cl)c1	>=80%	>=80%	1.5%	>=80%
N#Cc1c[nH]cc1-c1cccc2c1OC(F)(F)O2 [FLUDIOXONIL]	–	0%	–	–
CCC1(C(=O)NCCc2cc(Br)cs2)C(C)C1(Cl)Cl (stereo unspecified)	0%	<40%	>=80%	>=80%
maneb	0%	–	–	0%
